Where a name gives a salt, the structure may show the parent alone. Read-outs that look alike come from different tables or passages of the source. Each block holds one compound with its values, some of them ahead of it.
Key:
Type in all cases: physicochemical
[1] = critical water activity for hydrate formation (PXRD of solids from methanol/water suspensions); details: ambient temperature
From the text: The critical water activity of the monohydrate salt can be determined by mixing different ratios of organic solvents and water. The analysis of the water activity for these solvent mixtures are temperature dependent. Determination of the critical water activity typically comprises the following steps: (1) preparation of solvent mixtures with a range of water activities; (2) saturation of the organic solvent/water mixtures with the monohydrate salt; (3) the optional filtration of the saturated solution; (4) addition of a 1:1 solid mixture (e.g., 25 mg/phase) of the anhydrous and hydrated phases to the saturated organic solvent/water mixtures; (5) equilibration at the temperature of interest (3-5 days); and (6) analysis of the residual solids by the appropriate technique, as understood by one skilled in the art (e.g., PXRD) to determine the identity of the stable phases.
The inventors determined the critical water activity for (4s)-4-(5-phenyl-1,3,4-thiadiazol-2-yloxy)-1-azatricyclo[3.3.1.1^3,7]decane dihydrogen citrate monohydrate at ambient temperature. Specifically, the inventors developed suspensions of the crystalline product in mixtures of methanol and water, with water activities of 0.20, 0.15, 0.10, and 0.05, performing powder X-ray diffraction patterns for each suspension, respectively. […]

[2] = solubility in water
[3] = hygroscopicity by dynamic moisture sorption balance
Description: Dynamic moisture sorption balance (DMSB) was used to evaluate the hygroscopicity of the crystalline monohydrate compound. The hygroscopicity was evaluated using a dynamic moisture sorption balance (IGAsorp, Hiden Isochema) equipped with a data analyzer. The balance was calibrated using standardized weights of 20, 50, and 100 mg. The RH probe was calibrated using standardized salt solutions of lithium chloride, potassium carbonate, and sodium chloride. During the experiment, the flow rate of nitrogen gas at different relative humidity was 250 mL/min. For anhydrous materials, the sample was first dried with dry nitrogen at 50° C. for two hours. The temperature was then set to 25° C. and the relative humidity was changed from 0% to 90% and back to 0% at 10% intervals. For hydrated samples the temperature was set to 25° C. and the relative humidity was changed at 10% intervals from 30% to 90%, back to 10%, and then to 90%. For each step described herein, a one hour equilibration time period was used.

water activity of solvent at which the salt exists as the anhydrate [1]: ≤ 0.10 | water activity of solvent at which the salt exists as the monohydrate [1]: ≥ 0.15
Compound: c1ccc(-c2nnc(O[C@@H]3C4CC5C[C@H]3C[N@](C5)C4)s2)cc1 [(4s)-4-(5-phenyl-1,3,4-thiadiazol-2-yloxy)-1-azatricyclo[3.3.1.1^3,7]decane dihydrogen citrate]

solubility [2]: 28 mg/mL | hygroscopicity (in words) [3]: non-hygroscopicity
Compound: c1ccc(-c2nnc(O[C@@H]3C4CC5C[C@H]3C[N@](C5)C4)s2)cc1 [dihydrogen citrate anhydrate, (4s)-4-(5-phenyl-1,3,4-thiadiazol-2-yloxy)-1-azatricyclo[3.3.1.1^3,7]decane dihydrogen citrate]

hygroscopicity (in words) ([3]; citrate monohydrate): non-hygroscopic | hygroscopicity (in words) ([3]; listed as crystalline monohydrate of (4s)-4-(5-phenyl-1,3,4-thiadiazol-2-yloxy)-1-azatricy, citrate monohydrate): non-hygroscopic | weight change by dynamic moisture sorption ([3]; relative humidities from 0% to 90%, listed as crystalline monohydrate of (4s)-4-(5-phenyl-1,3,4-thiadiazol-2-yloxy)-1-azatricy, citrate monohydrate): < 0.2%
Compound: c1ccc(-c2nnc(O[C@@H]3C4CC5C[C@H]3C[N@](C5)C4)s2)cc1 [dihydrogen citrate monohydrate, (4s)-4-(5-phenyl-1,3,4-thiadiazol-2-yloxy)-1-azatricyclo[3.3.1.1^3,7]decane dihydrogen citrate monohydrate]

Source: patent US9464078B2, “Monohydrate of azaadamantane derivatives” (AbbVie Inc., priority 2010, dated 2016)
